Like-named read-outs stand apart in the source and are kept apart here. Where no end group is shown, it is not given here. MBP = maltose binding protein (fusion tag)
What was measured:
[1] = target: T1, PSD-95 PDZ2 coupled to a solid support (Mus musculus, UniProt Q62108); assay: Binding of NR2B tail truncation fusion proteins to PSD-95 PDZ2 affinity resin; details: elution with SIESDV peptide, SDS-PAGE
T1 construct: pJExpress414 plasmids containing a gene coding for the PDZ2 domain of PSD-95; made in house; host or cells: E. coli BL21(DE3)
Method: For the experiment, fusion proteins containing THX fused to varying numbers of residues from the NR2B Tail ([…]) were expressed in BL21(DE3) E. coli cells. Single colonies of BL21(DE3) cells harboring pJExpress414 plasmids containing genes of interest were grown overnight at 37° C. in 5 ml of lysogeny broth (LB) (Cat. No. L9110, Teknova, Hollister, Calif.) supplemented with 100 ug/ml carbenicillin. Overnight cultures were diluted 1:500 into Overnight Express Instant Terrific Broth (TB) Media (Cat. No. 71491, EMD Millipore, Billerica, Mass.), grown for 16 h at 37° C., pelleted by centrifugation, and flash frozen in liquid nitrogen. Bacterial cell pellets (0.4-2.5 grams) containing fusions of THX fused to varying numbers of residues from the NR2B Tail ([…]) were resuspended in 5 ml/g cell paste of BugBuster Lysis Buffer [1× BugBuster (Cat. No. 70921, EMD Millipore, Billerica Mass.), 50 mM HEPES, 150 mM NaCl, 5 mM TCEP, 0.5 mM EDTA, 10 mM MgCl2, 2 mM PMSF, Complete Protease Inhibitor supplemented with 25 U/ml Benzonase and 10 U/ml ReadyLyse]. Resuspended cells were incubated on a shaking platform at low speed for 20 minutes at room temperature before the lysate was clarified by centrifugation at 16,000×g for 30 min at 4° C. […] Eluted protein was analyzed on 4-12% bis-tris SDS-PAGE gels and proteins were detected by Gel Code Blue staining.
For the experiment, fusion proteins containing MBP fused to varying numbers of residues from the NR2B Tail ([…]) were expressed in BL21(DE3) E. coli cells. […] Bacterial cell pellets (0.4-2.5 grams) containing fusions of MBP fused to varying numbers of residues from the NR2B Tail ([…]) were resuspended in 5 ml/g cell paste of BugBuster Lysis Buffer [1× BugBuster (Cat. No. 70921, EMD Millipore, Billerica Mass.), 50 mM HEPES, 150 mM NaCl, 5 mM TCEP, 0.5 mM EDTA, 10 mM MgCl2, 2 mM PMSF, Complete Protease Inhibitor supplemented with 25 U/ml Benzonase and 10 U/ml ReadyLyse]. […]

[2] = tested on: NR2B C-terminal PDZ domain binding peptide, 1× nNOS PDZ-β-hairpin domains or 2× nNOS PDZ-β-hairpin domains; assay: Binding of control MBP or GST to peptide and nNOS PDZ affinity resins; details: expressed alone without a PDZ domain
Text: In order to test the hypothesis, PSD-95 PDZ2 domains (e.g. Type C PDZ affinity tags) were fused N- or C-terminally to MBP, or internally between an MBP and GST proteins and purified using affinity chromatography resins comprised of NR2B C-terminal PDZ domain binding peptide (H3N+-[…]-COO—), 1× nNOS PDZ-β-hairpin domains or 2× nNOS PDZ-β-hairpin domains. […] Tags performed equally when fused internally or C-terminally, however N-terminal tag fusions were purified in slightly lower yield.
For the experiment, MBP, GST and PSD-95 PDZ2 domains protein or fusion proteins consisting of MBP and/or GST fused in frame with N-terminal, internal or C-terminal PSD-95 PDZ2 domains (e.g. Type C PDZ affinity tags) were expressed in BL21(DE3) E. coli cells. […] Bacterial cell pellets (0.4-2.5 grams) containing the proteins of interest were resuspended in 5 ml/g cell paste of BugBuster Lysis Buffer [1× BugBuster (Cat. No. 70921, EMD Millipore, Billerica Mass.), 50 mM HEPES, 150 mM NaCl, 5 mM TCEP, 0.5 mM EDTA, 10 mM MgCl2, 2 mM PMSF, Complete Protease Inhibitor supplemented with 25 U/ml Benzonase and 10 U/ml ReadyLyse]. […] Eluted protein was analyzed on 4-12% bis-tris SDS-PAGE gels and proteins were detected by Gel Code Blue staining.

[3] = refs (54-58); read-out: approximate KD; cited from earlier work
[4] = untagged LacZ, Wallenfels & Malhotra, cited from earlier work
PDZ2 domain of PSD-95 = PDZ2 domain of PSD-95 (Rattus norvegicus, UniProt P31016); details: cited from earlier work
PDZ1 domain of PSD-95 = PDZ1 domain of PSD-95 (Rattus norvegicus, UniProt P31016); details: cited from earlier work

T1 sequence (Q62108 160-246 limits assumed): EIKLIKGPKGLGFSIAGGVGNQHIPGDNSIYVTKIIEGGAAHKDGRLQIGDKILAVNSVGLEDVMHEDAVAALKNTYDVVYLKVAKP

With “GST-EKLSSIESD: GST fused to NR2B tail sequence lacking the C-terminal valine ({GST}-EKLSSIESD)” the “binding to and elution from PSD-95 PDZ2 matrix” value (from here on “binding to and elution”) [1] was “abolished binding to the column”.
In the case of “GST: glutathione-S-transferase, known affinity tag and control fusion partner”, the “binding to affinity resins” value [2] is given as “did not bind to any of the three affinity resins” and the Kd [3] is given as 40000 to 170000 nM.
In the case of IESDV, the “binding to and elution” value [1] is reported as “required for effective binding to and elution from the PDZ2 PSD-95 matrix”.
For “LacZ: untagged β-Galactosidase, literature values”, the Km ([4]; ONPG) is given as 161 µM and the “VMAX (umol ONPG/mg protein*min)” value [4] is given as 178* umol ONPG/mg protein*min.
For “MBP-EKLSSIESD: MBP fused to NR2B tail sequence lacking the C-terminal valine ({MBP}-EKLSSIESD)”, the “binding to and elution” value [1] was “abolished binding to the column”.
In the case of SIESDV, the Kd (PDZ2 domain of PSD-95; ref (49)) is given as 700 nM, the Kd (PDZ2 domain of PSD-95; ref (134)) is given as 1300 nM and the Kd (PDZ1 domain of PSD-95; ref (49)) is given as 2300 nM. The Kd (PDZ1 domain of PSD-95; ref (134)) was 9700 nM.

— US20140329706A1, “AFFINITY TAGS, AND RELATED AFFINITY LIGANDS, ENGINEERED PROTEINS, MODIFIED SUPPORTS, COMPOSITIONS, METHODS AND SYSTEMS” (CALIFORNIA INSTITUTE OF TECHNOLOGY, priority 2013, published 2014)
